Experimental data as given in patent publication US11440913B2, “Aminoimidazopyridazines as kinase inhibitors” (BRISTOL-MYERS SQUIBB COMPANY, priority 2017, dated 2022).
pIC50: −log10 of the molar value. Structures can show the parent of a compound that is named as a salt. Where two headings read alike, the source gives them in different places.

Assays:
[1] = tested on: MLKL phosphorylation in HT29-L23 human colorectal adenocarcinoma cells; assay: MLKL Phosphorylation High-Content Assay; format: cell-based; conditions: necroptosis induced with TNFα, SMAC mimetic and Z-VAD, 6 h, read-out: pMLKL (IC50)
In short: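 HT29-L23 cells pretreated 30 min at 37 °C with compound (6.25 to 0.106 μM final), then necroptosis induced with TNFα 35 ng/mL, SMAC mimetic 700 nM and Z-VAD 140 nM for 6 h. Fixed cells immunostained for MLKL pS358 and imaged; IC50 and Ymax from 4-parameter logistic fit.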

[2] = biological target: His-GST-TVMV-hRIPK1(1-324) (Homo sapiens (Human), UniProt Q13546); assay: RIPK1 HTRF Binding Assay; conditions: HTRF binding, 1 h at rt; read-out: RIPK1 (IC50)
In short: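 HTRF probe-displacement binding: 1 nM His-GST-TVMV-hRIPK1(1-324) (baculovirus construct), 90.6 nM probe, 0.2 nM anti-GST-Tb in 20 mM HEPES, 10 mM MgCl2, 0.015% Brij-35, 4 mM DTT, 0.05 mg/mL BSA. Incubated 1 h at rt; FRET 520/495 nm ratio, inhibition relative to DMSO-only wells.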

His-GST-TVMV-hRIPK1(1-324), sequence (Q13546 1-324): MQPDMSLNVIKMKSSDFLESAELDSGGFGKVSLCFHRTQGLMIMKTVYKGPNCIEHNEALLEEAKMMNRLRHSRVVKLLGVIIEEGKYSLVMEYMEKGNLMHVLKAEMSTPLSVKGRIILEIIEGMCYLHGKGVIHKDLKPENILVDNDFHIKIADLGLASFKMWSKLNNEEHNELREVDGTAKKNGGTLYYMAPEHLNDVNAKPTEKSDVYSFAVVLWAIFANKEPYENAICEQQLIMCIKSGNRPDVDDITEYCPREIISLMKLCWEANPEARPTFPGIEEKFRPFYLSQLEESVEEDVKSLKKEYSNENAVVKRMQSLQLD

Row | Molecule | pIC50 [1] | pIC50 [2] | pIC50 ([1]; Homo sapiens)
1 | COc1nc(C)c(-c2ccc3nc(NC(C)=O)cn3n2)cc1C(=O)NC(C)c1ccccc1OC(F)(F)F (stereo not drawn) [Example 291, 5-{2-acetamidoimidazo[1,2-b]pyridazin-6-yl}-2-methoxy-6-methyl-N-{1-[2-(trifluoromethoxy)phenyl]ethyl}pyridine-3-carboxamide] | < 5.20 | < 5.30 | –
2 | COc1ncc(-c2ccc3nc(NC(C)=O)cn3n2)cc1C(=O)NCc1cc(OC(F)(F)F)ccc1F [Example 145, 5-{2-acetamidoimidazo[1,2-b]pyridazin-6-yl}-N-{[2-fluoro-5-(trifluoro-methoxy)phenyl](deutero)methyl}-2-methoxypyridine-3-carboxamide] | 7.57 | 8.30 | –
3 | [2H]C([2H])([2H])Oc1ncc(-c2ccc3nc(NC(C)=O)cn3n2)cc1C(=O)NC([2H])([2H])c1cc(F)cc(F)c1OC1CCOCC1 [Example 46, N-{[3,5-difluoro-2-(oxan-4-yloxy)phenyl](deutero)methyl}-5-{2-acetamidoimidazo[1,2-b]pyridazin-6-yl}-2-(D3)methoxypyridine-3-carboxamide] | – | 8.70 | 9.00
4 | CC(=O)Nc1cn2nc(-c3cnc(C)c(CNC(=O)c4cc(OC(F)(F)F)ccc4F)c3)ccc2n1 [Example 1, N-[(5-{2-acetamidoimidazo[1,2-b]pyridazin-6-yl}-2-methylpyridin-3-yl)methyl]-2-fluoro-5-(trifluoromethoxy)benzamide] | – | 7.00 | 6.62
5 | 5-{2- acetamidoimidazo [1,2-b]pyridazin- 6-yl}-N-{[2- fluoro-5- (trifluoromethoxy) phenyl] (Â^2Hâ,,)methyl}-2- methylbenzamide [Example 426] | 8.15 | 9.00 | –
6 | CC(=O)Nc1cn2nc(-c3ccc(C(F)(F)F)c(C(=O)NCc4cc(C(F)(F)F)ccc4F)c3)ccc2n1 [Example 385, 5-{2-acetamidoimidazo [1,2-b]pyridazin-6-yl}-N-{[2-fluoro-5-(trifluoromethyl)phenyl]methyl}-2-(trifluoromethyl) benzamide] | – | 7.24 | 6.72
7 | N-({3,5-difluoro-2-[(3S)-oxolan- 3-yloxy]phenyl}methyl)-5-{2- acetamidoimidazo[1,2-b]pyridazin- 6-yl}-2-(D3)methoxypyridine- 3-carboxamide [Example 45] | 7.60 | 7.89 | –
8 | COc1ncc(-c2ccc3nc(NC(C)=O)cn3n2)cc1C(=O)NCc1ccc(F)cc1OC1CCOCC1 [Example 152, 5-{2-acetamidoimidazo[1,2-b]pyridazin-6-yl}-N-{[4-fluoro-2-(oxan-4-yloxy)phenyl]methyl}-2-methoxypyridine-3-carboxamide] | – | 7.31 | 7.16
9 | COc1nc(C)c(-c2ccc3nc(NC(C)=O)cn3n2)cc1C(=O)NCc1cc(OCC2CC2)ccc1F [Example 297, N-{[5-(cyclopropylmethoxy)-2-fluorophenyl]methyl}-5-{2-acetamidoimidazo[1,2-b]pyridazin-6-yl}-2-methoxy-6-methylpyridine-3-carboxamide] | – | 7.96 | 7.44
10 | CC(=O)Nc1cn2nc(-c3cc(C(=O)NCc4ccccc4OC(F)(F)F)c(C)nc3C)ccc2n1 [Example 89, 5-{2-acetamidoimidazo[1,2-b]pyridazin-6-yl}-2,6-dimethyl-N-{[2-(trifluoro-methoxy)phenyl]methyl}pyridine-3-carboxamide] | – | 7.42 | 7.06
11 | COc1ncc(-c2ccc3nc(NC(C)=O)cn3n2)cc1C(=O)NCc1cccc(F)c1OCC1CC1 [Example 151, N-{[2-(cyclopropylmethoxy)-3-fluorophenyl]methyl}-5-{2-acetamidoimidazo[1,2-b]pyridazin-6-yl}-2-methoxypyridine-3-carboxamide, TFA] | 8.22 | 8.10 | –
12 | [2H]C([2H])([2H])Oc1ncc(-c2ccc3nc(NC(C)=O)cn3n2)cc1C(=O)NCc1cc(F)cc(F)c1OC1CCOCC1 [Example 50, N-{[3,5-difluoro-2-(oxan-4-yloxy)phenyl]methyl}-5-{2-acetamidoimidazo[1,2-b]pyridazin-6-yl}-2-(D3)methoxypyridine-3-carboxamide] | – | 8.70 | 8.70
13 | COc1ncc(-c2ccc3nc(NC(C)=O)cn3n2)cc1C(=O)NCc1ccccc1-n1cccc1 [Example 160, 5-{2-acetamidoimidazo[1,2-b]pyridazin-6-yl}-2-methoxy-N-{[2-(1H-pyrrol-1-yl)phenyl]methyl}pyridine-3-carboxamide] | – | 6.31 | 6.48
14 | COc1ncc(-c2ccc3nc(NC(=O)C(C)(C)C#N)cn3n2)cc1C(=O)NCc1cc(OCC2CC2)ccc1F [Example 29, 5-[2-(2-cyano-2,2-dimethylacetamido)imidazo[1,2-b]pyridazin-6-yl]-N-{[5-(cyclopropylmethoxy)-2-fluorophenyl]methyl}-2-methoxypyridine-3-carboxamide] | – | 6.59 | 6.35
15 | CC(=O)Nc1cn2nc(-c3ccc(C)c(C(=O)NCc4cc(-c5cnn(C6CC6)c5)ccc4F)c3F)ccc2n1 [Example 409, N-{[5-(1-cyclopropyl-1H-pyrazol-4-yl)-2-fluorophenyl]methyl}-3-{2-acetamidoimidazo [1,2-b]pyridazin-6-yl}-2-fluoro-6-methylbenzamide] | – | 8.70 | 7.89
16 | CC(=O)Nc1cn2nc(-c3cc(C(=O)NCc4ccccc4OCC4CC4)c(C)nc3C)ccc2n1 [Example 83, N-{[2-(cyclopropylmethoxy)phenyl]methyl}-5-{2-acetamidoimidazo[1,2-b]pyridazin-6-yl}-2,6-dimethylpyridine-3-carboxamide] | 8.15 | 8.30 | –
17 | CC(=O)Nc1cn2nc(-c3cnc(C)c(C(=O)N[C@H](C)c4cc(OC(F)(F)F)ccc4F)c3)ccc2n1 (single isomer, unassigned) [Example 9-2] | – | 7.51 | 7.55
18 | CC(=O)Nc1cn2nc(-c3cc(C(=O)NCc4cccc(F)c4OC4C[C@@H](C)O[C@@H](C)C4)c(C)nc3C)ccc2n1 (stereo partly drawn) [Example 63, N-[(2-{[(2R,6S)-2,6-dimethyloxan-4-yl]oxy}-3-fluorophenyl)methyl]-5-{2-acetamidoimidazo[1,2-b]pyridazin-6-yl}-2,6-dimethylpyridine-3-carboxamide] | – | 6.83 | 6.47
19 | COc1ncc(-c2ccc3nc(NC(=O)C(C)C)cn3n2)cc1C(=O)NCc1cc(F)cc(F)c1OC1CCOCC1 [Example 265, N-{[3,5-difluoro-2-(oxan-4-yloxy)phenyl]methyl}-2-methoxy-5-[2-(2-methylpropanamido)imidazo[1,2-b]pyridazin-6-yl]pyridine-3-carboxamide] | – | 8.52 | 8.15
20 | O=C(CN1CCC(F)(F)CC1)Nc1cn2nc(-c3cccc(C(=O)NCc4cc(OC(F)(F)F)ccc4F)c3F)ccc2n1 [Example 427, 3-{2-[2-(4,4-difluoropiperidin-1-yl)acetamido]imidazo [1,2-b]pyridazin-6-yl}-2-fluoro-N-{[2-fluoro-5-(trifluoromethoxy)phenyl]methyl} benzamide] | – | 8.15 | 8.52
21 | CC(=O)Nc1cn2nc(-c3cnc(C)c(C(=O)NCc4cccnc4OCC4CCCC4)c3)ccc2n1 [Example 217, N-{[2-(cyclopentylmethoxy)pyridin-3-yl]methyl}-5-{2-acetamidoimidazo [1,2-b]pyridazin-6-yl}-2-methylpyridine-3-carboxamide] | – | 7.27 | 6.69
22 | CC(=O)Nc1cn2nc(-c3cnc(C)c(C(=O)Nc4cn(Cc5ccccc5)cn4)c3)ccc2n1 [Example 351, N-(1-benzyl-1H-imidazol-4-yl)-5-{2-acetamidoimidazo [1,2-b]pyridazin-6-yl}-2-methylpyridine-3-carboxamide] | – | 7.55 | 7.31
23 | [2H]C([2H])([2H])Oc1cc(C)c(-c2ccc3nc(NC(C)=O)cn3n2)cc1C(=O)NCc1cc(OC(F)(F)F)ccc1F [Example 417] | – | 8.40 | 8.05
24 | [2H]C([2H])(NC(=O)c1cc(-c2ccc3nc(NC(C)=O)cn3n2)c(C)nc1C)c1cccc(C(F)(F)F)c1 [Example 74, 5-{2-acetamidoimidazo[1,2-b]pyridazin-6-yl}-2,6-dimethyl-N-{[3-(trifluoro-methyl)phenyl](deutero)methyl}pyridine-3-carboxamide, TFA] | – | 7.20 | 6.45
25 | CC(=O)Nc1cn2nc(-c3cc(C(=O)NCc4cc(F)ccc4OC(F)(F)F)cnc3Cl)ccc2n1 [Example 321, 6-chloro-5-{2-acetamidoimidazo[1,2-b]pyridazin-6-yl}-N-{[5-fluoro-2-(trifluoromethoxy)phenyl]methyl}pyridine-3-carboxamide] | – | 7.36 | 6.41
26 | COc1ncc(-c2ccc3nc(NC(C)=O)c(C)n3n2)cc1C(=O)NCc1cccc(OC(F)(F)F)c1 [Example 257, 5-{2-acetamido-3-methylimidazo[1,2-b]pyridazin-6-yl}-2-methoxy-N-{[3-(trifluoromethoxy)phenyl]methyl}pyridine-3-carboxamide, TFA] | – | 7.21 | 7.16
27 | COc1ccc(-c2ccc3nc(NC(C)=O)cn3n2)c(F)c1C(=O)N[C@@H](C)c1cc(OC(F)(F)F)ccc1F [Example 375, 3-{2-acetamidoimidazo [1,2-b]pyridazin-6-yl}-2-fluoro-N-[(1S)-1[2-fluoro-5-(trifluoromethoxy)phenyl]ethyl]-6-methoxybenzamide] | – | 7.92 | 8.52
